# System: T1, special icariin glycosidase
# T1 construct: gene icariin 7-O-glucosidase; native enzyme purified from culture supernatant (methanol precipitation, DEAE-cellulose DE-52); about 75 kDa by SDS-PAGE
# Test: Lineweaver-Burk; HPLC and TLC of products and substrate
# Type: biochemical, Aspergillus sp. y48
# Conditions: 45 °C, 9 h reaction, 0.4-2.0 mmol/L icariin; purified free enzyme
structure (smiles),measurement,value
COc1ccc(-c2oc3c(CC=C(C)C)c(O[C@@H]4O[C@H](CO)[C@@H](O)[C@H](O)[C@H]4O)cc(O)c3c(=O)c2O[C@@H]2O[C@@H](C)[C@H](O)[C@@H](O)[C@H]2O)cc1 [icariin],Km,3.55 mM

# From article PMC11729362, “Icariside II Preparation from Icariin Separated from Epimedium Herbal Extract Powder by a Special Icariin Glycosidase” (Journal of Microbiology and Biotechnology, 2024)
